{"source": "ChEMBL document CHEMBL1146667", "about": "“Benzodiazepine-based selective inhibitors of mitochondrial F1F0 ATP hydrolase” (Bioorg Med Chem Lett, 2004)", "key": {"[1]": {"biological_target": "T1, Mitochondrial complex V; ATP synthase (Bos taurus, UniProt P00829+P05630+P05631+P05632)", "T1 sequence (P05632 whole entry)": "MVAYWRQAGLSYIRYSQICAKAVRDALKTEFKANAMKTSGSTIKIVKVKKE", "T1 sequence (P00829 whole entry)": "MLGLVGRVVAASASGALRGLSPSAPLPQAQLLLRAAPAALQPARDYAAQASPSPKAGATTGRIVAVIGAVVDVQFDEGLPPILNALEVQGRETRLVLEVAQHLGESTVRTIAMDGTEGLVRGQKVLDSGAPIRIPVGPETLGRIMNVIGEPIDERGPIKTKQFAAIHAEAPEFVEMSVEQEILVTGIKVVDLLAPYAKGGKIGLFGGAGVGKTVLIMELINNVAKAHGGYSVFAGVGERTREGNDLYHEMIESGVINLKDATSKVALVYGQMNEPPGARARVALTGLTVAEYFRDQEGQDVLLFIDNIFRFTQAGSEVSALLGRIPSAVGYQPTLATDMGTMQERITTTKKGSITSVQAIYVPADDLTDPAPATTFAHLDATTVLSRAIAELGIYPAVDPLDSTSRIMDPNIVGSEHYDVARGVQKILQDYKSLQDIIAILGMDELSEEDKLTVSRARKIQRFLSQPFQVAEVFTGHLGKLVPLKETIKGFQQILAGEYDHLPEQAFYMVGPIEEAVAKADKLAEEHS", "T1 sequence (P05631 whole entry)": "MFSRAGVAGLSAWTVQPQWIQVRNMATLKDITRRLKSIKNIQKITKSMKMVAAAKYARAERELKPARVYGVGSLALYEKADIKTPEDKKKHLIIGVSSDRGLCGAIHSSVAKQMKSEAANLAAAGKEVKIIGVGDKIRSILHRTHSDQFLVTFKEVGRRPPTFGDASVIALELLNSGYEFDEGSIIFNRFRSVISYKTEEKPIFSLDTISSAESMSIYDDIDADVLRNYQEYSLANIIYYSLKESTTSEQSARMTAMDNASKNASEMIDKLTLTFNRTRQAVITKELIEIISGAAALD", "T1 sequence (P05630 whole entry)": "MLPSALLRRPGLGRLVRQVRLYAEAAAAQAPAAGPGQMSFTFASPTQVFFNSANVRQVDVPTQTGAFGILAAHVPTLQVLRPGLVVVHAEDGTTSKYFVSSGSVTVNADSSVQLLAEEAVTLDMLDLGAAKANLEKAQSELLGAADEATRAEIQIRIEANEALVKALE", "test": "Inhibitory activity against bovine mitochondrial F1F0-ATP synthase", "type": "protein-complex assay"}, "[2]": {"biological_target": "T1, Mitochondrial complex V; ATP synthase", "test": "Inhibitory activity against bovine mitochondrial F1F0-ATP hydrolase", "type": "protein-complex assay"}, "Cytochrome P450 2C9 [3]": {"biological_target": "T2, Cytochrome P450 2C9 (Homo sapiens, UniProt P11712)", "T2 sequence (P11712 whole entry)": "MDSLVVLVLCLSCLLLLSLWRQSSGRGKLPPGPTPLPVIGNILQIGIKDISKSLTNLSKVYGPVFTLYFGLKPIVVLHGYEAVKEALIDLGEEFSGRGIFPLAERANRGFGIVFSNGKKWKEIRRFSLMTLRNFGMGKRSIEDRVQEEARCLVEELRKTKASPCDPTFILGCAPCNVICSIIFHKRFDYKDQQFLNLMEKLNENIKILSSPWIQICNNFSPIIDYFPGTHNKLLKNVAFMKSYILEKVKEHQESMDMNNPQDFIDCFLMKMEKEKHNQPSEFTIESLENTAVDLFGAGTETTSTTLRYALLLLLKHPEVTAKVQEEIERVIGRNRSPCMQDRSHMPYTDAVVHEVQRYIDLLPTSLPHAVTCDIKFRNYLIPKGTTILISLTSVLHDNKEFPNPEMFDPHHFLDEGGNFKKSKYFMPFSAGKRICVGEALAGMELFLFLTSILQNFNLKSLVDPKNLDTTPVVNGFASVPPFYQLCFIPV", "test": "Inhibitory activity against ccytochrome P450 2C9"}, "Cytochrome P450 2C9 [4]": {"biological_target": "T2, Cytochrome P450 2C9", "test": "Inhibitory activity against cytochrome P450 2C9", "type": "ADME"}}, "data": [{"smiles": "Cc1nc[nH]c1CN1c2ccccc2CN(Cc2ccc(C(C)(C)C)cc2)CC1CCc1ccccc1", "note": "(centres undefined)", "values": [{"measurement": "IC50", "setting": "[1]", "value": "> 30000", "unit": "nM"}, {"measurement": "IC50", "setting": "[2]", "value": 2350, "unit": "nM"}]}, {"smiles": "CC(C)(C)c1ccc(S(=O)(=O)N2Cc3ccccc3N(Cc3c[nH]cn3)C(CCc3ccccc3)C2)cc1", "note": "(centres undefined)", "values": [{"measurement": "IC50", "setting": "Cytochrome P450 2C9 [3]", "value": 38, "unit": "nM"}, {"measurement": "IC50", "setting": "[1]", "value": "> 30000", "unit": "nM"}, {"measurement": "IC50", "setting": "[2]", "value": 8, "unit": "nM"}]}, {"smiles": "O=S(=O)(c1ccccc1)N1Cc2ccccc2N(Cc2cnc[nH]2)C(CCc2ccccc2)C1", "note": "(centres undefined)", "values": [{"measurement": "IC50", "setting": "[1]", "value": "> 30000", "unit": "nM"}, {"measurement": "IC50", "setting": "[2]", "value": 282, "unit": "nM"}]}, {"smiles": "O=S(=O)(c1ccc(F)cc1)N1Cc2ccccc2N(Cc2c[nH]cn2)C(CCc2ccccc2)C1", "note": "(centres undefined)", "values": [{"measurement": "IC50", "setting": "[1]", "value": "> 30000", "unit": "nM"}, {"measurement": "IC50", "setting": "[2]", "value": 221, "unit": "nM"}]}, {"smiles": "O=S(=O)(Cc1ccccc1)N1Cc2ccccc2N(Cc2c[nH]cn2)C(CCc2ccccc2)C1", "note": "(centres undefined)", "values": [{"measurement": "IC50", "setting": "[1]", "value": "> 30000", "unit": "nM"}, {"measurement": "IC50", "setting": "[2]", "value": 2410, "unit": "nM"}]}, {"smiles": "CC(C)(C)c1ccc(CN2Cc3ccccc3N(Cc3cnc[nH]3)C(CCc3ccccc3)C2)cc1", "note": "(centres undefined)", "values": [{"measurement": "IC50", "setting": "[1]", "value": "> 30000", "unit": "nM"}, {"measurement": "IC50", "setting": "[2]", "value": 2140, "unit": "nM"}]}, {"smiles": "CC(=O)Nc1ccc(S(=O)(=O)N2Cc3ccccc3N(Cc3cnc[nH]3)C(CCc3ccccc3)C2)cc1", "note": "(centres undefined)", "values": [{"measurement": "IC50", "setting": "[1]", "value": "> 30000", "unit": "nM"}, {"measurement": "IC50", "setting": "[2]", "value": 2980, "unit": "nM"}]}, {"smiles": "O=S(=O)(c1cccc2cccnc12)N1Cc2ccccc2N(Cc2c[nH]cn2)C(CCc2ccccc2)C1", "note": "(centres undefined)", "values": [{"measurement": "IC50", "setting": "[1]", "value": "> 30000", "unit": "nM"}, {"measurement": "IC50", "setting": "[2]", "value": 2930, "unit": "nM"}]}, {"smiles": "O=S(=O)(N1Cc2ccccc2N(Cc2c[nH]cn2)C(CCc2ccccc2)C1)C(F)(F)F", "note": "(centres undefined)", "values": [{"measurement": "IC50", "setting": "[1]", "value": "> 30000", "unit": "nM"}, {"measurement": "IC50", "setting": "[2]", "value": 77, "unit": "nM"}]}, {"smiles": "Cc1nc[nH]c1CN1c2ccccc2CN(S(=O)(=O)c2ccc(Cl)c(Cl)c2)CC1CCc1ccccc1", "note": "(centres undefined)", "values": [{"measurement": "IC50", "setting": "[1]", "value": "> 30000", "unit": "nM"}, {"measurement": "IC50", "setting": "[2]", "value": 22, "unit": "nM"}, {"measurement": "IC50", "setting": "Cytochrome P450 2C9 [4]", "value": 2000, "unit": "nM"}]}, {"smiles": "O=S(=O)(c1ccc(O)cc1)N1Cc2ccccc2N(Cc2cnc[nH]2)C(CCc2ccccc2)C1", "note": "(centres undefined)", "values": [{"measurement": "IC50", "setting": "[1]", "value": "> 30000", "unit": "nM"}, {"measurement": "IC50", "setting": "[2]", "value": 667, "unit": "nM"}]}, {"smiles": "O=[N+]([O-])c1cccc(S(=O)(=O)N2Cc3ccccc3N(Cc3cnc[nH]3)C(CCc3ccccc3)C2)c1", "note": "(centres undefined)", "values": [{"measurement": "IC50", "setting": "[1]", "value": "> 30000", "unit": "nM"}, {"measurement": "IC50", "setting": "[2]", "value": 423, "unit": "nM"}]}, {"smiles": "O=S(=O)(c1cc(Cl)ccc1Cl)N1Cc2ccccc2N(Cc2cnc[nH]2)C(CCc2ccccc2)C1", "note": "(centres undefined)", "values": [{"measurement": "IC50", "setting": "[1]", "value": "> 30000", "unit": "nM"}, {"measurement": "IC50", "setting": "[2]", "value": 158, "unit": "nM"}]}, {"smiles": "COc1ccc(S(=O)(=O)N2Cc3ccccc3N(Cc3c[nH]cn3)C(CCc3ccccc3)C2)cc1", "note": "(centres undefined)", "values": [{"measurement": "IC50", "setting": "[1]", "value": "> 30000", "unit": "nM"}, {"measurement": "IC50", "setting": "[2]", "value": 77, "unit": "nM"}]}, {"smiles": "O=S(=O)(c1cccc2ccccc12)N1Cc2ccccc2N(Cc2cnc[nH]2)C(CCc2ccccc2)C1", "note": "(centres undefined)", "values": [{"measurement": "IC50", "setting": "[1]", "value": "> 30000", "unit": "nM"}, {"measurement": "IC50", "setting": "[2]", "value": 338, "unit": "nM"}]}, {"smiles": "N#Cc1ccc(S(=O)(=O)N2Cc3ccccc3N(Cc3cnc[nH]3)C(CCc3ccccc3)C2)cc1", "note": "(centres undefined)", "values": [{"measurement": "IC50", "setting": "[1]", "value": "> 30000", "unit": "nM"}, {"measurement": "IC50", "setting": "[2]", "value": 255, "unit": "nM"}]}, {"smiles": "Cc1nc[nH]c1CN1c2ccccc2CN(S(=O)(=O)c2ccc(F)cc2)CC1CCc1ccccc1", "note": "(centres undefined)", "values": [{"measurement": "IC50", "setting": "[1]", "value": "> 30000", "unit": "nM"}, {"measurement": "IC50", "setting": "[2]", "value": 151, "unit": "nM"}]}, {"smiles": "CC(C)(C)c1ccc(S(=O)(=O)N2Cc3ccccc3N(Cc3ncc[nH]3)C(CCc3ccccc3)C2)cc1", "note": "(centres undefined)", "values": [{"measurement": "IC50", "setting": "[1]", "value": "> 30000", "unit": "nM"}, {"measurement": "IC50", "setting": "[2]", "value": "> 10000", "unit": "nM"}]}, {"smiles": "O=S(=O)(c1cccs1)N1Cc2ccccc2N(Cc2cnc[nH]2)C(CCc2ccccc2)C1", "note": "(centres undefined)", "values": [{"measurement": "IC50", "setting": "[1]", "value": "> 30000", "unit": "nM"}, {"measurement": "IC50", "setting": "[2]", "value": 636, "unit": "nM"}]}, {"smiles": "Cc1[nH]cnc1CN1c2ccccc2CN(S(=O)(=O)c2ccc(C(C)(C)C)cc2)CC1CCc1ccccc1", "note": "(centres undefined)", "values": [{"measurement": "IC50", "setting": "[1]", "value": "> 30000", "unit": "nM"}, {"measurement": "IC50", "setting": "[2]", "value": 77, "unit": "nM"}, {"measurement": "IC50", "setting": "Cytochrome P450 2C9 [4]", "value": 3000, "unit": "nM"}]}, {"smiles": "N#Cc1ccc(S(=O)(=O)N2Cc3ccccc3N(Cc3c[nH]cn3)C(CCc3ccccc3)C2)c(Cl)c1", "note": "(centres undefined)", "values": [{"measurement": "IC50", "setting": "[1]", "value": "> 30000", "unit": "nM"}, {"measurement": "IC50", "setting": "[2]", "value": 939, "unit": "nM"}]}, {"smiles": "Cc1nc(CN2c3ccccc3CN(S(=O)(=O)c3ccc(F)cc3)CC2CCc2ccccc2)c[nH]1", "note": "(centres undefined)", "values": [{"measurement": "IC50", "setting": "[1]", "value": "> 30000", "unit": "nM"}, {"measurement": "IC50", "setting": "[2]", "value": 9620, "unit": "nM"}]}, {"smiles": "O=S(=O)(c1cccc2nonc12)N1Cc2ccccc2N(Cc2cnc[nH]2)C(CCc2ccccc2)C1", "note": "(centres undefined)", "values": [{"measurement": "IC50", "setting": "[1]", "value": "> 30000", "unit": "nM"}, {"measurement": "IC50", "setting": "[2]", "value": 1780, "unit": "nM"}]}]}
